doi:10.1101/2024.08.13.607785v1 (biorxiv, 2024)

Key:
Parameters in all cases: species or system mixed lysate of K562, MV4-11, THP-1, NCI-H1155
[1] = target: T1, Ephrin type-B receptor 1 ; EPHB1 ; P54762 (Homo sapiens, UniProt P54762); conditions: DIA-MS residual binding; binder
T1 sequence (P54762 1-984): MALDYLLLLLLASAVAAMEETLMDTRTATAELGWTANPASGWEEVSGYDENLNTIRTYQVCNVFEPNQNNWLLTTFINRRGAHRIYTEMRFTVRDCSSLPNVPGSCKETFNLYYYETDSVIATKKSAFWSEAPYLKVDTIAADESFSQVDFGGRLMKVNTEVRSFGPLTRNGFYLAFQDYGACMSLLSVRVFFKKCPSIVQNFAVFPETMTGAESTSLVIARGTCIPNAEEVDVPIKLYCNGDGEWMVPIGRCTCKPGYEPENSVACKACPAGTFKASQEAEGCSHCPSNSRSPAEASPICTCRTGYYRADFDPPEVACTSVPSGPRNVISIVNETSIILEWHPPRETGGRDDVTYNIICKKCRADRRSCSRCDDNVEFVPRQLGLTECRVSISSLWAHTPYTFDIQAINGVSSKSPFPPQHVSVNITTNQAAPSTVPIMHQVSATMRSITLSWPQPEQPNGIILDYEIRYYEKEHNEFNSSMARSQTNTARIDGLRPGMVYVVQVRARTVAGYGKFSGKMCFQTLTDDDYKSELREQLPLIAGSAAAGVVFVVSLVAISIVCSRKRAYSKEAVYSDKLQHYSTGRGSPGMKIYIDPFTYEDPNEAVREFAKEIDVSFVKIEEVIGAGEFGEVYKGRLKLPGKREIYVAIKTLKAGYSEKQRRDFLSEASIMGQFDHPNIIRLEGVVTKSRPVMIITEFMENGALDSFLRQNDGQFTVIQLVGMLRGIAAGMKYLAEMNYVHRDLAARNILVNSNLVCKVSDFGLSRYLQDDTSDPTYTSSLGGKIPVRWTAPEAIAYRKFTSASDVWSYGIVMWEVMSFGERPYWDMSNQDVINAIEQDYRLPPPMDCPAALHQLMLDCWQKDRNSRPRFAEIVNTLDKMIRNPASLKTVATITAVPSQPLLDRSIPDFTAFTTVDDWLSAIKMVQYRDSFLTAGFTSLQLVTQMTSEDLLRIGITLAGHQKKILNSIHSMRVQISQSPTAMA

[2] = target: Isoform 3 of Serine/threonine-protein kinase SIK3 ; SIK3-7 ; Q9Y2K2-7 (Homo sapiens, UniProt Q9Y2K2); conditions: DIA-MS residual binding; binder
Isoform 3 of Serine/threonine-protein kinase SIK3 ; SIK3-7 ; Q9Y2K2-7, sequence (Q9Y2K2 whole entry, canonical isoform, one chain of several): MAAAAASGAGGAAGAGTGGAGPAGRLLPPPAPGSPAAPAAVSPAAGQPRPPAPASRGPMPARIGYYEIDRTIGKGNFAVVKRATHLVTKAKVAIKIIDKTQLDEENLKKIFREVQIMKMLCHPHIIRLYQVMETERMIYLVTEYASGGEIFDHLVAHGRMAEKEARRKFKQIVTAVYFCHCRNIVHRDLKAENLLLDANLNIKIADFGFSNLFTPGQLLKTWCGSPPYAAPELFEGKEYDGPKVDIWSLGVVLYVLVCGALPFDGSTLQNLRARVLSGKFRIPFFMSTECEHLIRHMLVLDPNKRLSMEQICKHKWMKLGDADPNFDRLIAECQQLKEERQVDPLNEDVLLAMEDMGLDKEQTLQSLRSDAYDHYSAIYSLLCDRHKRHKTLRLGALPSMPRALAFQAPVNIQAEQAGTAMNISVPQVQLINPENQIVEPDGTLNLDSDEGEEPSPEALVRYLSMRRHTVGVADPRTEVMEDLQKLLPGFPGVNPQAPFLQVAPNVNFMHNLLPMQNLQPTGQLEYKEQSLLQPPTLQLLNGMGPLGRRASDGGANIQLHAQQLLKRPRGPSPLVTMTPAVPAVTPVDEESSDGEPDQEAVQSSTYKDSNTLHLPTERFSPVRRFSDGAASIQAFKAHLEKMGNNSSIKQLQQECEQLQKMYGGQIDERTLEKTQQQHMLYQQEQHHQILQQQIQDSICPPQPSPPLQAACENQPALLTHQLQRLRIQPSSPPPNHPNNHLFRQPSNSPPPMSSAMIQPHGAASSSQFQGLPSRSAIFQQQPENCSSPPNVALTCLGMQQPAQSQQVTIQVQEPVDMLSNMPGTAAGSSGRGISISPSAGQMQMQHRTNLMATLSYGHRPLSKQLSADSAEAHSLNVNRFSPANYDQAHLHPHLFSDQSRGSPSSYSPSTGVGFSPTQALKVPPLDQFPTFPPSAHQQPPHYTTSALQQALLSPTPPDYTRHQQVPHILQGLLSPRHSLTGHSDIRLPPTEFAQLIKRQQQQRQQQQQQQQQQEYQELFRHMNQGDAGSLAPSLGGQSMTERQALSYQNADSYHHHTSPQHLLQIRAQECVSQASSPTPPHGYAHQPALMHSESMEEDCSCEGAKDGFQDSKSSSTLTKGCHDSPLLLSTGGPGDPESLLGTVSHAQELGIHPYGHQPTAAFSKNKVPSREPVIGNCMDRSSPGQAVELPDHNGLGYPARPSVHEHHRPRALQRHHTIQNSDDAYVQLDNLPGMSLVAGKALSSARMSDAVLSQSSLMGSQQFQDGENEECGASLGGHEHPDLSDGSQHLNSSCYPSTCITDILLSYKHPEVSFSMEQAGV

[3] = target: Isoform 3 of Membrane-associated tyrosine- and threonine-specific cdc2 ; PKMYT1-3 ; Q99640-3 (Homo sapiens, UniProt Q99640); conditions: binder
Isoform 3 of Membrane-associated tyrosine- and threonine-specific cdc2 ; PKMYT1-3 ; Q99640-3, sequence (Q99640 whole entry, canonical isoform, one chain of several): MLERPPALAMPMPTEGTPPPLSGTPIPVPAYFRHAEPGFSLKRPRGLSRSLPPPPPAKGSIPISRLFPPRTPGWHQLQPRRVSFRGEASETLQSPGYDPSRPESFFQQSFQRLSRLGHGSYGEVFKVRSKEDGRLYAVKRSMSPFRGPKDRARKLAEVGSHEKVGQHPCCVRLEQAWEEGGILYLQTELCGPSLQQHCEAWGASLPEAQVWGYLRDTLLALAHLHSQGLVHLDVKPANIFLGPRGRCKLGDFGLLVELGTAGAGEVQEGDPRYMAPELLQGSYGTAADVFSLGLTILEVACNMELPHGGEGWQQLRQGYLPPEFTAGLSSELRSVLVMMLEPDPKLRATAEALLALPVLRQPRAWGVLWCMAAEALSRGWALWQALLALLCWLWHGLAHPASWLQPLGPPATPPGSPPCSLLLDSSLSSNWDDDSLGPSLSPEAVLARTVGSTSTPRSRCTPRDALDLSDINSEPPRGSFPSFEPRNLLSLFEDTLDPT

[4] = target: Dual specificity testis-specific protein kinase 1 ; TESK1 ; Q15569 (Homo sapiens, UniProt Q15569); conditions: DIA-MS residual binding; binder
[5] = target: Tyrosine-protein kinase HCK ; HCK ; P08631 (Homo sapiens, UniProt P08631); conditions: DIA-MS residual binding; binder
Tyrosine-protein kinase HCK ; HCK ; P08631, sequence (P08631 whole entry): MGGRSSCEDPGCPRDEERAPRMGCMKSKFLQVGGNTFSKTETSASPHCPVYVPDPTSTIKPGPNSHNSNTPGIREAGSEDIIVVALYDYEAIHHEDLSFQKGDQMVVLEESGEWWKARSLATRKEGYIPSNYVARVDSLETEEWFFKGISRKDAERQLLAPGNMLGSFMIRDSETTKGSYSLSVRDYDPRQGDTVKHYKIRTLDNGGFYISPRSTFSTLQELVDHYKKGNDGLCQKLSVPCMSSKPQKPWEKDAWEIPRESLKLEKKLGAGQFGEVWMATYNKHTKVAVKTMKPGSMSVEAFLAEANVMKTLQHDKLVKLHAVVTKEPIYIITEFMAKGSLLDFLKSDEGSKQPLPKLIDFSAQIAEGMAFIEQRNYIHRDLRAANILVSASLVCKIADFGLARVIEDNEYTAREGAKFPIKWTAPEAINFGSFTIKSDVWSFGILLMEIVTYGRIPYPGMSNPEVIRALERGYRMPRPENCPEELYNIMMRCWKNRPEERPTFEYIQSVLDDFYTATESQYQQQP

[6] = target: T2, Dual specificity mitogen-activated protein kinase kinase 5 ; MAP2K5 ; Q13163 (Homo sapiens, UniProt Q13163); conditions: DIA-MS residual binding; binder
T2 sequence (Q13163 1-448): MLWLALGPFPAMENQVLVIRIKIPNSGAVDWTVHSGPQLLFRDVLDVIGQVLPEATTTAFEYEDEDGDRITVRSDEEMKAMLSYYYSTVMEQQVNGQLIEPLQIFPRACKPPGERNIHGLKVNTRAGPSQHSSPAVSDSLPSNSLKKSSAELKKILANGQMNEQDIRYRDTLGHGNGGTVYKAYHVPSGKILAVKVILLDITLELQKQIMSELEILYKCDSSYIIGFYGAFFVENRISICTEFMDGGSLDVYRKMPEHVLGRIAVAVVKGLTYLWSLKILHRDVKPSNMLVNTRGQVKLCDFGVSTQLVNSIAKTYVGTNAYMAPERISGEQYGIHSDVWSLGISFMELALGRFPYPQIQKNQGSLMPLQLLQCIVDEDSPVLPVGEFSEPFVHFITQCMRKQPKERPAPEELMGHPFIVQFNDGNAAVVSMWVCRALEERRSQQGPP

[7] = target: Proto-oncogene tyrosine-protein kinase receptor Ret ; RET ; P07949 (Homo sapiens, UniProt P07949); conditions: binder
Proto-oncogene tyrosine-protein kinase receptor Ret ; RET ; P07949, sequence (P07949 whole entry): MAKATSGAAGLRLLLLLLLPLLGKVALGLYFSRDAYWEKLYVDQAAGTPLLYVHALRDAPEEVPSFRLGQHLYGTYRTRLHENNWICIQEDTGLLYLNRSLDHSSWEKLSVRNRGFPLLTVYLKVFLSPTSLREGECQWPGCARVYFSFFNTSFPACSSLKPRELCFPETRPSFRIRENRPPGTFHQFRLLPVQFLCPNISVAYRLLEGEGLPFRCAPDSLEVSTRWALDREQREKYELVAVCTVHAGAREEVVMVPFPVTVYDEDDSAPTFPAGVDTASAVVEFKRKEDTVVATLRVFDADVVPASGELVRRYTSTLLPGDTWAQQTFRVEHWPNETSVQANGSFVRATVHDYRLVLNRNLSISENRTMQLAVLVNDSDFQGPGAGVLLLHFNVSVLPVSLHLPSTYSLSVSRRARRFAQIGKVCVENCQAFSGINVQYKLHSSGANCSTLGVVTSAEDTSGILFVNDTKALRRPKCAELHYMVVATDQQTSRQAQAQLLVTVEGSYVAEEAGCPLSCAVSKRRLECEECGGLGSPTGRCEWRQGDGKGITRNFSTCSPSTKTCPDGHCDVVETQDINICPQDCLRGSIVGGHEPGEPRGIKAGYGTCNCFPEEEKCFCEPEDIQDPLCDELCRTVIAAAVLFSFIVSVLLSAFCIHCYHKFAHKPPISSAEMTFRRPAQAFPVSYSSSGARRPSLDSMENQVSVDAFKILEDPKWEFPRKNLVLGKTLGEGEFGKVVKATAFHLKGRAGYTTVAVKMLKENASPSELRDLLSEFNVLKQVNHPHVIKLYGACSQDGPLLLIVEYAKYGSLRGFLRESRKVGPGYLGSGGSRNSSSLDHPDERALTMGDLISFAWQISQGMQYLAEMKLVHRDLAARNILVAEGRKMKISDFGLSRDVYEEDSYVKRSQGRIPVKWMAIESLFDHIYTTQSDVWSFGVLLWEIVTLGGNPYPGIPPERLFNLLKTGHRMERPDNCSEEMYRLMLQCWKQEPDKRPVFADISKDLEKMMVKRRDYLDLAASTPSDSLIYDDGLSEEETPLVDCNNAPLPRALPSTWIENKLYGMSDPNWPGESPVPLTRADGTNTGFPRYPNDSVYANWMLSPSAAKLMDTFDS

[8] = target: T3, Dual specificity mitogen-activated protein kinase kinase 3 ; MAP2K3 ; P46734 (Homo sapiens, UniProt P46734); conditions: DIA-MS residual binding; binder
T3 sequence (P46734 1-347): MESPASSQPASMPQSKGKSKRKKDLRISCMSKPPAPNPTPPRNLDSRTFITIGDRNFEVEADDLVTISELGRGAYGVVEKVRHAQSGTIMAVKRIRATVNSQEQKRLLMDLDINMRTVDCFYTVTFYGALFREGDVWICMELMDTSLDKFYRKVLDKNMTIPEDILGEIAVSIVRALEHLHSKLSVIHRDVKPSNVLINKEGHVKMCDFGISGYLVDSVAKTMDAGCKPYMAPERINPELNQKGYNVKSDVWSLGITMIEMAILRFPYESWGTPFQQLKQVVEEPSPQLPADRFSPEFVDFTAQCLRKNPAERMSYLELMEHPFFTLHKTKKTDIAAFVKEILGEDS

[9] = target: Isoform 6 of Tyrosine-protein kinase ABL2 ; ABL2-6 ; P42684-6 (Homo sapiens, UniProt P42684); conditions: DIA-MS residual binding; binder
Isoform 6 of Tyrosine-protein kinase ABL2 ; ABL2-6 ; P42684-6, sequence (P42684 whole entry, canonical isoform): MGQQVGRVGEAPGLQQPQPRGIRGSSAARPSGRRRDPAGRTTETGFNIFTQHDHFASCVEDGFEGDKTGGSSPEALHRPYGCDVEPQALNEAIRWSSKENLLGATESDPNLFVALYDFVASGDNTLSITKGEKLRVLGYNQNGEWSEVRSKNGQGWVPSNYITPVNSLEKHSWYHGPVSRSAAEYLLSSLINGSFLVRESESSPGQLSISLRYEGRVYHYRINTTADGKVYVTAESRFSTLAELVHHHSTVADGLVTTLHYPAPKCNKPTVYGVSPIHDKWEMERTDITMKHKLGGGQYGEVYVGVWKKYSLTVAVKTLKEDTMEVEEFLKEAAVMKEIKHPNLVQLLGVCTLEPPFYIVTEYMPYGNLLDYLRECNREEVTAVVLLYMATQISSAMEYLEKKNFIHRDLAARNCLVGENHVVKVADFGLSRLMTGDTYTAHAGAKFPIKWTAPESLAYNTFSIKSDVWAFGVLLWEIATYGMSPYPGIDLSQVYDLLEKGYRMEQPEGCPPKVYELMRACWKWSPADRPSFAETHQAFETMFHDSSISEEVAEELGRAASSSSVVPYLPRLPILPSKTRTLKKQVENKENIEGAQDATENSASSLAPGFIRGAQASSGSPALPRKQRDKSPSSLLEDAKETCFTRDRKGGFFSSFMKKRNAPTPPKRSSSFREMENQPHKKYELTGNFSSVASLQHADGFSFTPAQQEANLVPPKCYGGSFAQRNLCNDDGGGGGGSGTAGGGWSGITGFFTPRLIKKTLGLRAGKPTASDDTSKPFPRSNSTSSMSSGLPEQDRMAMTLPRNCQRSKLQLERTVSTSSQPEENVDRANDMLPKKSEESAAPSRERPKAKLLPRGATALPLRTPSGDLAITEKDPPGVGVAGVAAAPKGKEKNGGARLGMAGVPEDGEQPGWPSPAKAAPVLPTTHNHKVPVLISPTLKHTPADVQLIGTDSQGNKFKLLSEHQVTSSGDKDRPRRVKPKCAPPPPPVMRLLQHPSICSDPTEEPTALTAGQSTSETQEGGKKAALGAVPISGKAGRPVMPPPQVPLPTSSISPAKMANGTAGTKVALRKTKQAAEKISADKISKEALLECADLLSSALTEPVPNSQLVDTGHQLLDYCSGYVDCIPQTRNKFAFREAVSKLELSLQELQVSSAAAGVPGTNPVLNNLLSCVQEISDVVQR

- DIA-MS / % Intensity (30 µM/DMSO) [1]: 6.728%
- DIA-MS / % Intensity (30 µM/DMSO) [2]: 12.26%
- DIA-MS / % Intensity (30 µM/DMSO) [3]: 30.34%
- DIA-MS / % Intensity (30 µM/DMSO) [4]: 14.82%
- DIA-MS / % Intensity (30 µM/DMSO) [5]: 2.086%
- DIA-MS / % Intensity (30 µM/DMSO) [6]: 35.82%
- DIA-MS / % Intensity (30 µM/DMSO) [7]: 41.37%
- DIA-MS / % Intensity (30 µM/DMSO) [8]: 55.82%
- DIA-MS / % Intensity (30 µM/DMSO) [9]: 0.2688%
SMILES: Cc1nc(Nc2ncc(C(=O)Nc3c(C)cccc3Cl)s2)cc(N2CCN(CCO)CC2)n1 [dasatinib]
